Measurements: patent publication US20240118281A1, “ANTICANCER COMPOUNDS AND USES THEREOF” (University of Florida Research Foundation, Incorporated, priority 2021, published 2024)

Columns and labels:
[1] = system: DR5; assay: Disulfide bond-mediated oligomerization and levels, non-reducing immunoblot; format: cell-based; settings: MDA-MB-468 cells, 24 h
Text: (§1) The BT20, BT474, BT549, MCF7, MDA-MB-231, MDA-MB-436, MDA-MB-468, HCC1143, HCC1500, HCC1569, HCC1937, HCC1954, Hs578t, and T47D cells lines were purchased from American Type Culture Collection (ATCC) (Manassas, VA). The HCI-001 cell line was derived from an ER-/PR-/HER2- patient-derived xenograft originally isolated from a patient as described previously (DeRose Y S, et al. Nat Med 2011; 17: 1514-1520). The HCI-001/LVM2 model was derived from the HCI-001 cell line by performing two rounds of selection for liver metastasis, as described previously (Wang M, et al. Cell Death Discovery 2019; 5: 153). Cell lines were grown in Dulbecco's Modified Eagle's Medium (GE Healthcare Life Sciences, Logan, UT) containing 10% fetal bovine serum (10% FBS—DMEM) in a humidified incubator with 5% CO2 at 37° C. Cell lysates were prepared as described previously (Law B K, et al. Mol Cell Biol. 2002; 22: 8184-8198). Immunoblot analysis was performed utilizing the following antibodies purchased from Cell Signaling Technology (Beverly, MA) [Akt, #4691; P-Akt[T308], #13038; ATF4, #11815; CHOP, #2895; Cleaved Caspase 8, #9496; DR4, #42533; DR5, #8074; EGFR, #4267; GRP78, #3177; HER3, #4754; PARP, #9532; PDIA1, #3501; XBP1s, #12782], from Santa Cruz Biotechnology (Santa Cruz, CA) [Actin, sc-47778; AGR2/3, sc-376653; AGR3, sc-390940; ERO1-a, sc-100805; and ERp44, sc-393687], or from Rockland Immunochemicals, Inc. (Limerick, PA), Streptavidin-Alkaline Phosphatase conjugated (SA-AP), S000-05.
(§2) To assess protein disulfide bond-mediated oligomerization, cells were treated with DDAs for 24 h in 10% FBS-DMEM. Cells were subsequently scraped directly into the media and pelleted by centrifugation. Cells were extracted directly into boiling 2×-SDS-Sample Buffer containing 100 mM NEM and boiled for 10 min. Samples were sonicated, followed by centrifugation for 20 min at room temperature. Samples were subsequently analyzed by SDS-PAGE and immunoblot.

[2] = system: EGFR; assay: Disulfide bond-mediated oligomerization, non-reducing immunoblot; format: cell-based; settings: MDA-MB-468 cells, 24 h, FIG. 1E right
Text: as §1, §2

[3] = system: DR4; assay: as above; format: cell-based; settings: MDA-MB-468 cells, 24 h
Text: as §1, §2

[4] = system: GRP78; assay: Endoplasmic reticulum stress (ERS) induction, immunoblot; format: cell-based; settings: MDA-MB-468 cells, 24 h
Text: as §1, §2

[5] = system: MDA-MB-468 cells; assay: Cell viability (MTT) assay; format: cell-based; settings: FIG. 1D
Experimental: MTT (3-(4,5-dimethylthiazol-2-yl)-2,5-diphenyltetrazolium bromide) (Biomatik, Wilmington, DE) assays were performed by plating 7,500 cells/well in 10% FBS/DMEM in a 96-well plate, followed by incubation at 37° C. for 24 h. Cells were then treated with vehicle or increasing concentrations of tcyDTDO, dMtcyDTDO, or dFtcyDTDO and incubated at 37° C. for 72 h. Cell media was subsequently removed from each well and MTT assays were initiated by incubating cells with 0.5 mg/ml MTT in PBS for 3 h, followed by removal of the MTT solution and addition of 100 µL of DMSO to each well for 30 min. Absorbance of the MTT formazan product was subsequently measured at 570 and 690 (reference) nm in a plate reader.

[6] = target: T1, ERp44 (Homo sapiens, UniProt Q9BS26); assay: ERp44 disulfide bonding with client proteins, non-reducing immunoblot; format: cell-based; set-up: endogenous in cells; host or cells: MDA-MB-468; settings: MDA-MB-468 cells overexpressing wild type ERp44, 7.5 μM, 24 h, FIG. 6B
T1 sequence (Q9BS26 30-406): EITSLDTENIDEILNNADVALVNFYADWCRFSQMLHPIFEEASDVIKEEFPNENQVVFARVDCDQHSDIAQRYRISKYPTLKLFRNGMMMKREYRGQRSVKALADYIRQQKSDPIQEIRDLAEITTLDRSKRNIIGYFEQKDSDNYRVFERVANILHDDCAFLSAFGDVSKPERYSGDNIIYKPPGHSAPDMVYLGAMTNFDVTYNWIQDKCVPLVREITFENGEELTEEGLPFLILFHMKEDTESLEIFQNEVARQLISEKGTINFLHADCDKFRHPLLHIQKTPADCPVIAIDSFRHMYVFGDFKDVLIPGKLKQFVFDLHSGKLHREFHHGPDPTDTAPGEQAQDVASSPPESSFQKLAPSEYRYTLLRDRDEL
Experimental: as §2

[7] = system: HER2+ BT474 xenograft tumors; assay: BT474 xenograft tumor study, H&E staining of mammary fat pads/tumors; format: in vivo, mice; settings: 20 mg/kg intraperitoneal, four consecutive days; vehicle tumors showed no necrosis
Experimental: Breast cancer liver metastasis was initiated in NOD-SCID-gamma (NSG) mice obtained from Jackson Laboratories (Bar Harbor, ME) by injecting 1×10^6 cancer cells into the #4 mammary fat pads as described previously (Wang M, et al. Cell Death Discovery 2019; 5: 153). Mice bearing HCI-001/LVM2 breast tumors were treated once daily for four consecutive days with 20 mg/kg tcyDTDO by oral gavage and livers were collected. Animals bearing HER2+ BT474 tumors were treated with the vehicle or 20 mg/kg dMtcyDTDO or dFtcyDTDO by intraperitoneal injection for four consecutive days. Tissue samples fixed in 4% paraformaldehyde/PBS and paraffin-embedded were sectioned and stained with hematoxylin and eosin (H&E) by the University of Florida Molecular Pathology Core (https://molecular.pathology.ufl.edu/).

[8] = target: T2, ERp44 (Homo sapiens, UniProt Q9BS26, S61C); assay: ERp44 disulfide bonding with client proteins, non-reducing immunoblot; format: cell-based; settings: MDA-MB-468 cells overexpressing ERp44[S61C], 7.5 μM, 24 h, FIG. 6B
T2 construct: endogenous in cells; host or cells: MDA-MB-468
Experimental: as §2

[9] = system: ERAP1; assay: ERAP1 retention/secretion in MDA-MB-468 cells, immunoblot; format: cell-based; settings: MDA-MB-468 stable cell lines expressing ERp44, 24 h, FIG. 4E
Text: as §1, §2

[10] = compared with tcyDTDO, FIG. 1E left

T2 sequence (Q9BS26 30-406 S61C): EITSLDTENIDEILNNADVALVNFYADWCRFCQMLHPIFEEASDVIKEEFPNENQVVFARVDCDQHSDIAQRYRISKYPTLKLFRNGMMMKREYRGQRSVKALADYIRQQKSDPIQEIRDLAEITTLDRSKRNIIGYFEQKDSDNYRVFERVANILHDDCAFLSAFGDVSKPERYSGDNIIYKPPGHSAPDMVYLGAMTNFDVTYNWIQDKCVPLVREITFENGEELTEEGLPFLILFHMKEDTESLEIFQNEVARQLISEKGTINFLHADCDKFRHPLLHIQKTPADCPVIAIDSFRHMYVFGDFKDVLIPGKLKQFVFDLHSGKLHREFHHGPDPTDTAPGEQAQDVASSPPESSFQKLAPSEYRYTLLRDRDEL

- Disulfide bonding of overexpressed ERp44 to client proteins [6]: partially blocked
SMILES: O=S1(=O)CC2CC(F)C(F)CC2CS1 (centres unmarked) [dFtcyDTDO, difluoro-tcyDTDO]
- DR5 upregulation in cells overexpressing C58S or S61C ERp44 mutants ([1]; 7.5 μM, FIG. 6B): potentiated DR5 upregulation
- Concentration at which oligomerization of DR5 was observed ([1]; FIG. 1E right): 1.25 µM
- DR4/5 oligomerization at the same concentration (DR5) [1, 10]: more DR4/5 oligomerization
- DR5 levels at the same concentration [1, 10]: higher DR5 levels
- Concentration at which disulfide-mediated oligomerization of EGFR was detected [2]: 625 nM
- Concentration at which disulfide-mediated oligomerization of DR4 was detected ([3]; FIG. 1E right): 625 nM
- DR4/5 oligomerization at the same concentration (DR4) [3, 10]: more DR4/5 oligomerization
- Concentration at which induction of ERS (GRP78 elevation) was detected ([4]; FIG. 1E right): 625 nM
- ERS at the same concentration [4, 10]: greater ERS
- Potency in cell viability assays relative to tcyDTDO [5]: approximately two-fold greater potency than tcyDTDO
- Tumors in mammary fat pads, H&E histology [7]: tumors were not observed
- Disruption of S61C ERp44 mutant binding to its clients, versus wild type [8]: less sensitive to disruption of binding to its clients
- ERAP1-ERp44 disulfide-bonded dimer [9]: reduced
